Data on three compounds can be found in paper PMC7368294 (Proceedings of the National Academy of Sciences of the …, 2020).

Read-outs that look alike come from different tables or passages of the source.

This assay concerns the target T1, Btα1/Btα8/Btβ1 nAChR (Bombus terrestris, UniProt A0A9B0BGM1+A0A9B0F4H3+A0A9B2JDZ7).
T1 sequence (A0A9B0F4H3 44-615): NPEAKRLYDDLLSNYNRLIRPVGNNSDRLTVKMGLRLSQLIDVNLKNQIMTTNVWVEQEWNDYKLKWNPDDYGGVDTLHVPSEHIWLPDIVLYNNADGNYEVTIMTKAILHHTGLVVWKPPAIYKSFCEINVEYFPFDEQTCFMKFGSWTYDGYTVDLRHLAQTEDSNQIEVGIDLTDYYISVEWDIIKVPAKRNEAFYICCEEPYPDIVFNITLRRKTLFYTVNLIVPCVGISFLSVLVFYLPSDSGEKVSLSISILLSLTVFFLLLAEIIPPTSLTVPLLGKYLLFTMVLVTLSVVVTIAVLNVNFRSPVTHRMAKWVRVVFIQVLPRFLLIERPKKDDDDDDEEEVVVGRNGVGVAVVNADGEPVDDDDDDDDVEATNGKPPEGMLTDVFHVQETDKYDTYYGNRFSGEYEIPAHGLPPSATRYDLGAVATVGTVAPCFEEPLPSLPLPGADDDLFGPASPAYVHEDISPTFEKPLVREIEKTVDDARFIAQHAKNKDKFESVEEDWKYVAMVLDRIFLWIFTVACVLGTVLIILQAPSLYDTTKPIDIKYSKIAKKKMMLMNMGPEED
T1 sequence (A0A9B2JDZ7 22-535): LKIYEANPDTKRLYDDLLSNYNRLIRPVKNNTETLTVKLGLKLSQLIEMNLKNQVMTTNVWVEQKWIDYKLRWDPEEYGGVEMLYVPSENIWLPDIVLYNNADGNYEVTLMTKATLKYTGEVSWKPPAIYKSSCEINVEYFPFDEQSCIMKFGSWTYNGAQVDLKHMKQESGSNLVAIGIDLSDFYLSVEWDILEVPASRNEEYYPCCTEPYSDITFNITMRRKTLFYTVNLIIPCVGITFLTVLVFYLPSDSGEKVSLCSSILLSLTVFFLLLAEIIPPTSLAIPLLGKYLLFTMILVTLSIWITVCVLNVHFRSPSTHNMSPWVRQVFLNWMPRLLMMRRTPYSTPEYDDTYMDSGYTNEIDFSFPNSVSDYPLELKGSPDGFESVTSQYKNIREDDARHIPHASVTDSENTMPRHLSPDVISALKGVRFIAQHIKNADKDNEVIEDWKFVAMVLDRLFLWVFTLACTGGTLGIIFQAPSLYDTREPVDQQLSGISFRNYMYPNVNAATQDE
T1 sequence (A0A9B0BGM1 19-519): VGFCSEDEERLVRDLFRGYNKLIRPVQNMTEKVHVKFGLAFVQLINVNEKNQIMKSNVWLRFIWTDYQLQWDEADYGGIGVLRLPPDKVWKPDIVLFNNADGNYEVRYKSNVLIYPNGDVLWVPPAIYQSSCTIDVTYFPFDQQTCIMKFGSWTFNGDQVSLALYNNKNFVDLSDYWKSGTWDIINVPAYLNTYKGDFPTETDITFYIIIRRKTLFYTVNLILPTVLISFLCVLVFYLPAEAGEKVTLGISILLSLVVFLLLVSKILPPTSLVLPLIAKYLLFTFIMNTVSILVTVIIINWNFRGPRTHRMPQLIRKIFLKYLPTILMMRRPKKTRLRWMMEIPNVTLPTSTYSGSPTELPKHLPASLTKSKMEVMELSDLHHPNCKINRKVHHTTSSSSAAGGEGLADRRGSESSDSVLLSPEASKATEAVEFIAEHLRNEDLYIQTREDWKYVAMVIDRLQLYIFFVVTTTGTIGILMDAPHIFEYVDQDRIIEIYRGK
In words: cell-based. Set-up: species or system Xenopus laevis oocytes. Particulars: Oocyte.

Consider `CN/C(=N\[N+](=O)[O-])NCc1cnc(Cl)s1` [clothianidin], for which, where the note is “read-out: Clothianidin / Imax”, the Emax stood at 75.9 ± 1.8%.

Consider `O=[N+]([O-])NC1=NCCN1Cc1ccc(Cl)nc1` [imidacloprid], for which the Emax (read-out: Imidacloprid / Imax) amounted to 10.7 ± 1%.

Turning to `N#C/N=C1\SCCN1Cc1ccc(Cl)nc1` [thiacloprid], the Emax (read-out: Thiacloprid / Imax) is 9.4 ± 0.8%.
